Usually IC50 stands for the point on the concentration scale where inhibition reaches its midpoint.

Our source for the IC50 values is US20220033397A1, “PHARMACEUTICAL COMPOUNDS AND THEIR USE AS INHIBITORS OF UBIQUITIN SPECIFIC PROTEASE 19 (USP19)” (ALMAC DISCOVERY LIMITED, priority 2018, published 2022).

The target of the test is T1, Full-length USP19 (Homo sapiens, UniProt O94966).
T1 construct: Full-length USP19 was purchased from Boston Biochem (E-576); purchased Boston Biochem E-576
T1 sequence (O94966 1-1318): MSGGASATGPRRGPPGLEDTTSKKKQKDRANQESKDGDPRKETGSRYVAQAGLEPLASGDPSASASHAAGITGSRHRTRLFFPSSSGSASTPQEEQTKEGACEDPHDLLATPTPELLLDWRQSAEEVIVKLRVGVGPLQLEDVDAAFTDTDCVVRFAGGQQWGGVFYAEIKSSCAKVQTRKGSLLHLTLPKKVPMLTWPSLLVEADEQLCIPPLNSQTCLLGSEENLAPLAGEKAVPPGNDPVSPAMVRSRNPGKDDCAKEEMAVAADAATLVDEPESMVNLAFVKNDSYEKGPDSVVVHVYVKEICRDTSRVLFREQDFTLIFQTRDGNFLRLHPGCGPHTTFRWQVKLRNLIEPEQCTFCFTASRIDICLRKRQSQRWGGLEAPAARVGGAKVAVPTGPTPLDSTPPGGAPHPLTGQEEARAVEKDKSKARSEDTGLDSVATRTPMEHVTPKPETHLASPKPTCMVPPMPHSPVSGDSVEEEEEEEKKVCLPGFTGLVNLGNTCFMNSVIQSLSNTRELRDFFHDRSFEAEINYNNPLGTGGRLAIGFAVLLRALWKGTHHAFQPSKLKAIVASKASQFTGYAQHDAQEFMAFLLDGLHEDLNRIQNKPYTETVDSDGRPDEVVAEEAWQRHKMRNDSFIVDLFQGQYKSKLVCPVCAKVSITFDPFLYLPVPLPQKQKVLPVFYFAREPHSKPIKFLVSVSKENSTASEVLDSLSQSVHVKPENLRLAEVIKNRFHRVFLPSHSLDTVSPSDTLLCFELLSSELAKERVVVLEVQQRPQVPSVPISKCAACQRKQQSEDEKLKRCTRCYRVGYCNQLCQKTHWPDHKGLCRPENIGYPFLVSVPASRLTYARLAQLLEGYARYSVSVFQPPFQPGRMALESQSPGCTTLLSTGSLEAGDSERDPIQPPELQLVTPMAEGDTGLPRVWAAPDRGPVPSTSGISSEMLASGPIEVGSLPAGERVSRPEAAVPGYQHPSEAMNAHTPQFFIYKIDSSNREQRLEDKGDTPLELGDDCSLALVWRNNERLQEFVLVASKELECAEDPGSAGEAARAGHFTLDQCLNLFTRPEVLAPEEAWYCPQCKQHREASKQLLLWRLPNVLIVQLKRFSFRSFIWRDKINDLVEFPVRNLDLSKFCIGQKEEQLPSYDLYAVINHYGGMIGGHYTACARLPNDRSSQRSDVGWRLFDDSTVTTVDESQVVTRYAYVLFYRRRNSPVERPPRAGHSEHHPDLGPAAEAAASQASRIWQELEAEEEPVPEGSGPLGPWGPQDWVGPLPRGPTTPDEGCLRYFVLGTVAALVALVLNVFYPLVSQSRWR
Nature of the test: USP19 fluorescence polarisation (FP) homogeneous assay with Ubiquitin-Lys-TAMRA substrate. Format: biochemical. Particulars: 2.5 nM USP19, 30 min pre-incubation, average of at least two duplicate experiments. Put shortly: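 Full-length USP19 preincubated 30 min at RT with inhibitor (200 μM to 2 μM series, 8–18 points) before adding 500 nM Ubiquitin-Lys-TAMRA substrate.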

Turning to `C[C@H](CC1CCCCC1)C(=O)N1CCC(O)(Cn2cc(N=S(C)(C)=O)c(-c3ccccc3)cc2=O)C2(CCCC2)C1` (stereo partly drawn) [Example 72, 1-((7-((R)-3-Cyclohexyl-2-methylpropanoyl)-10-hydroxy-7-azaspiro[4.5]decan-10-yl)methyl)-5-((dimethyl(oxo)-λ^6-sulfaneylidene)amino)-4-phenylpyridin-2(1H)-one], the IC50 is less than 500 nM.

Turning to `C[C@H](CC1CCCCC1)C(=O)N1CCC(O)(Cn2cc(-c3ccccc3)c(N=S(C)(C)=O)cc2=O)C2(CCCC2)C1` (stereo partly drawn) [Example 73, 1-((7-((R)-3-Cyclohexyl-2-methylpropanoyl)-10-hydroxy-7-azaspiro[4.5]decan-10-yl)methyl)-4-((dimethyl(oxo)-λ^6-sulfaneylidene)amino)-5-phenylpyridin-2(1H)-one], the IC50 lay within 500 to 5000 nM. To `C[C@H](CC1CCCCC1)C(=O)N1CCC(O)(Cn2cc(S(C)(=N)=O)c(-c3ccccc3)cc2=O)C2(CCCC2)C1` (stereo partly drawn) [Example 74, 1-((7-((R)-3-Cyclohexyl-2-methylpropanoyl)-10-hydroxy-7-azaspiro[4.5]decan-10-yl)methyl)-5-(S-methylsulfonimidoyl)-4-phenylpyridin-2(1H)-one] belongs less than 500 nM; to `C[C@H](CC(F)(F)F)C(=O)N1CCC(O)(Cn2cc(N=S(C)(C)=O)c(-c3ccccc3)cc2=O)C2(CCCC2)C1` (stereo partly drawn) [Example 75, 5-((Dimethyl(oxo)-λ^6-sulfaneylidene)amino)-1-((10-hydroxy-7-((R)-4,4,4-trifluoro-2-methylbutanoyl)-7-azaspiro[4.5]decan-10-yl)methyl)-4-phenylpyridin-2(1H)-one], less than 500 nM.

Turning to `CSc1cn(CC2(O)CCN(C(=O)[C@H](C)CC3CCCCC3)CC23CCCC3)c(=O)cc1Cl` (stereo partly drawn) [Example 76, 4-Chloro-1-((7-((R)-3-cyclohexyl-2-methylpropanoyl)-10-hydroxy-7-azaspiro[4.5]decan-10-yl)methyl)-5-(methylthio)pyridin-2(1H)-one], the IC50 was less than 500 nM.

With `C[C@H](CC1CCCCC1)C(=O)N1CCC(O)(Cn2cc(S(C)(=O)=O)c(Cl)cc2=O)C2(CCCC2)C1` (stereo partly drawn) [Example 77, 4-Chloro-1-((7-((R)-3-cyclohexyl-2-methylpropanoyl)-10-hydroxy-7-azaspiro[4.5]decan-10-yl)methyl)-5-(methylsulfonyl)pyridin-2(1H)-one], the IC50 is less than 500 nM.

As for `CSc1cn(CC2(O)CCN(C(=O)[C@H](C)CC3CCCCC3)CC23CCCC3)c(=O)cc1-c1ccccc1` (stereo partly drawn) [Example 78, 1-((7-((R)-3-Cyclohexyl-2-methylpropanoyl)-10-hydroxy-7-azaspiro[4.5]decan-10-yl)methyl)-5-(methylthio)-4-phenylpyridin-2(1H)-one], the concentration for half-maximal inhibition (IC50) was less than 500 nM. On to `C[C@H](CC1CCCCC1)C(=O)N1CCC(O)(Cn2cc([S+](C)[O-])c(-c3ccccc3)cc2=O)C2(CCCC2)C1` (stereo partly drawn) [Example 79, 1-((7-((R)-3-Cyclohexyl-2-methylpropanoyl)-10-hydroxy-7-azaspiro[4.5]decan-10-yl)methyl)-5-(methylsulfinyl)-4-phenylpyridin-2(1H)-one], for which the IC50 is less than 500 nM.

In the case of `C[C@H](CC1CCCCC1)C(=O)N1CCC(O)(Cn2cc(S(C)(=O)=O)c(-c3ccccc3)cc2=O)C2(CCCC2)C1` (stereo partly drawn) [Example 80, 1-((7-((R)-3-Cyclohexyl-2-methylpropanoyl)-10-hydroxy-7-azaspiro[4.5]decan-10-yl)methyl)-5-(methylsulfonyl)-4-phenylpyridin-2(1H)-one], the half-inhibitory concentration (IC50) is less than 500 nM.

For the compound `CN(Cc1ccccc1)C(=O)N1CCC(O)(Cn2cnc(-c3ccccc3F)cc2=O)CC1` [Example 81, N-Benzyl-4-((4-(2-fluorophenyl)-6-oxopyrimidin-1(6H)-yl)methyl)-4-hydroxy-N-methylpiperidine-1-carboxamide], the concentration for half-maximal inhibition (IC50) lay within 50000 to 250000 nM. `CN(C)C(=O)c1cn(CC2(O)CCN(C(=O)N(C)CC3CCCCC3)CC23CCCC3)c(=O)cc1-c1ccccc1` (stereo not shown) [Example 82, N-(Cyclohexylmethyl)-10-((5-(dimethylcarbamoyl)-2-oxo-4-phenylpyridin-1(2H)-yl)methyl)-10-hydroxy-N-methyl-7-azaspiro[4.5]decane-7-carboxamide]: the 50% inhibitory concentration (IC50) was less than 500 nM. To `CN(C)C(=O)c1cn(CC2(O)CCN(C(=O)Oc3ccc([N+](=O)[O-])cc3)CC23CCCC3)c(=O)cc1-c1ccccc1` (stereo not shown) [Example 83, 4-Nitrophenyl 10-((5-(dimethylcarbamoyl)-2-oxo-4-phenylpyridin-1(2H)-yl)methyl)-10-hydroxy-7-azaspiro[4.5]decane-7-carboxylate] belongs 50000 to 250000 nM.

As for `CC(C)COC(=O)N1CCC(O)(Cn2cc(C(=O)N(C)C)c(-c3ccccc3)cc2=O)C2(CCCC2)C1` (stereo not shown) [Example 84, Isobutyl 10-((5-(dimethylcarbamoyl)-2-oxo-4-phenylpyridin-1(2H)-yl)methyl)-10-hydroxy-7-azaspiro[4.5]decane-7-carboxylate], the IC50 is 5000 to 50000 nM. Next, `CN(C)C(=O)c1cn(CC2(O)CCN(C(=O)NCc3ccccc3)CC23CCCC3)c(=O)cc1-c1ccccc1` (stereo not shown) [Example 85, N-Benzyl-10-((5-(dimethylcarbamoyl)-2-oxo-4-phenylpyridin-1(2H)-yl)methyl)-10-hydroxy-7-azaspiro[4.5]decane-7-carboxamide]: less than 500 nM; `CN(C)C(=O)c1cn(CC2(O)CCN(C(=O)N(C)C)CC23CCCC3)c(=O)cc1-c1ccccc1` (stereo not shown) [Example 86, 10-((5-(Dimethylcarbamoyl)-2-oxo-4-phenylpyridin-1(2H)-yl)methyl)-10-hydroxy-N,N-dimethyl-7-azaspiro[4.5]decane-7-carboxamide]: 5000 to 50000 nM; `CN(C)C(=O)c1cn(CC2(O)CCN(C(=O)N(C)Cc3ccccc3)CC23CCCC3)c(=O)cc1-c1ccccc1` (stereo not shown) [Example 87, N-Benzyl-10-((5-(dimethylcarbamoyl)-2-oxo-4-phenylpyridin-1(2H)-yl)methyl)-10-hydroxy-N-methyl-7-azaspiro[4.5]decane-7-carboxamide]: less than 500 nM. As to `CN(C)C(=O)c1cn(CC2(O)CCN(C(=O)N3CCC(C(F)(F)F)C3)CC23CCCC3)c(=O)cc1-c1ccccc1` (stereo not shown) [Example 88, 1-((10-Hydroxy-7-(3-(trifluoromethyl)pyrrolidine-1-carbonyl)-7-azaspiro[4.5]decan-10-yl)methyl)-N,N-dimethyl-6-oxo-4-phenyl-1,6-dihydropyridine-3-carboxamide], the IC50 was less than 500 nM. To `CN(C)C(=O)c1cn(CC2(O)CCN(C(=O)N(C)C3CCCCC3)CC23CCCC3)c(=O)cc1-c1ccccc1` (stereo not shown) [Example 89, N-Cyclohexyl-10-((5-(dimethylcarbamoyl)-2-oxo-4-phenylpyridin-1(2H)-yl)methyl)-10-hydroxy-N-methyl-7-azaspiro[4.5]decane-7-carboxamide] belongs 5000 to 50000 nM.

Take `O=C(N1CCC(O)(Cn2ccncc2=O)C2(CCCC2)C1)N1CCOC[C@H]1c1ccccc1` (stereo partly drawn) [Example 90, 1-((10-Hydroxy-7-((R)-3-phenylmorpholine-4-carbonyl)-7-azaspiro[4.5]decan-10-yl)methyl)pyrazin-2(1H)-one]: the concentration for half-maximal inhibition (IC50) lay within 500 to 5000 nM. To `O=C(N1CCC(O)(Cn2ccncc2=O)C2(CCCC2)C1)N1CCNC[C@H]1c1ccccc1` (stereo partly drawn) [Example 91, 1-((10-Hydroxy-7-((R)-2-phenylpiperazine-1-carbonyl)-7-azaspiro[4.5]decan-10-yl)methyl)pyrazin-2(1H)-one] belongs 500 to 5000 nM; to `Cc1cn(CC2(O)CCN(C(=O)N3CCNC[C@H]3c3ccccc3)CC23CCCC3)c(=O)cn1` (stereo partly drawn) [Example 92, 1-((10-Hydroxy-7-((R)-2-phenylpiperazine-1-carbonyl)-7-azaspiro[4.5]decan-10-yl)methyl)-5-methylpyrazin-2(1H)-one], less than 500 nM; to `Cc1nccn(CC2(O)CCN(C(=O)N3CCNC[C@H]3c3ccccc3)CC23CCCC3)c1=O` (stereo partly drawn) [Example 93, 1-((10-Hydroxy-7-((R)-2-phenylpiperazine-1-carbonyl)-7-azaspiro[4.5]decan-10-yl)methyl)-3-methylpyrazin-2(1H)-one], 5000 to 50000 nM.
